Consider 45 compounds from patent publication US6310093A (priority 1998, dated 2001).

“And” between values parts separate entries of the source, which are not always exact repeats. Identical values can stand only once. Like-named read-outs stand apart in the source and are kept apart here. Non-standard residues stand in square brackets, D forms with d. Residues, ends and D or L forms follow the SMILES beside them. pGlu = O=C1CC[C@@H](C(=O)O)N1

The test has as its target T1, glutaminase (brain membranes) (Rattus norvegicus, UniProt P13264).
T1 construct: Membranes are prepared by homogenization of brain tissue in 330 mM sucrose; from tissue; host or cells: rat brain, crude membranes (17000 G pellet)
T1 sequence (P13264 73-674 limits assumed): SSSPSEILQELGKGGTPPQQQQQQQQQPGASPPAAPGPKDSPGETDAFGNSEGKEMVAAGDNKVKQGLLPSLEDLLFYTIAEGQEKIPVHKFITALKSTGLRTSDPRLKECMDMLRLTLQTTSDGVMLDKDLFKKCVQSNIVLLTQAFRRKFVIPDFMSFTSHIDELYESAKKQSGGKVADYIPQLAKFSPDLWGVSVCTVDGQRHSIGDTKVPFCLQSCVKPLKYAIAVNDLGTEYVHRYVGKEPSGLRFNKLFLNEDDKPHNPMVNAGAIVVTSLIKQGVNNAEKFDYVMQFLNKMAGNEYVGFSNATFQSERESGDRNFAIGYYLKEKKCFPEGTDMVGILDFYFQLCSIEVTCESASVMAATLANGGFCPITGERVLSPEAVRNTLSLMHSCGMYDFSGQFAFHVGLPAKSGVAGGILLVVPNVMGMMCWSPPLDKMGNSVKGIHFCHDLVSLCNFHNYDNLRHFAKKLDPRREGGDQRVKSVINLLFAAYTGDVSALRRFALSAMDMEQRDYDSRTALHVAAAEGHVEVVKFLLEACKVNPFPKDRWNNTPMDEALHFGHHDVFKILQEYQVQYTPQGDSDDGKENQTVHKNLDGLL
The experiment in a line: biochemical. Conditions: for Glutaminase Activity: brain membranes. On the set-up: Glutaminase Activity: unit not given here.

Setting [1] is: read-out: glutaminase activity, phosphate-containing compounds.

Take `CC(CC(N)C(=O)O)C(=O)O` (racemic) [(±)-threo-4-methylglutamate]: under “read-out: Glutaminase Activity”, the activity at 3300 µM worked out at 170% and the activity at 9000 µM was found to be 100%.

On to `CC(=O)NC(CCC(=O)O)C(=O)O` (racemic) [N-acetyl-DL-glutamate], for which, where the note is “read-out: Glutaminase Activity”, the activity at 3300 µM stood at 92 ± 10% and the activity at 9000 µM stood at 75 ± 10%.

Regarding `CNC(CCC(=O)O)C(=O)O` (racemic) [N-methyl-DL-glutamate], for the setting “read-out: Glutaminase Activity”, the activity at 3300 µM stood at 102% and the activity at 9000 µM is 124%.

In the case of `CC(N)(CCC(=O)O)C(=O)O` (racemic) [α-methyl-DL-glutamate], the activity at 3300 µM (read-out: Glutaminase Activity) came to 76%.

Turning to `C=C(CC(N)C(=O)O)C(=O)O` (racemic) [γ-methylene-DL-glutamate], under “read-out: Glutaminase Activity”, the activity at 3300 µM came to 105 ± 10%.

`C[C@@H](CC(=O)O)[C@H](N)C(=O)O` (relative stereo) [(±)-erythro-3-methylglutamate]: the “glutaminase inhibition (in words)” value is recorded as “moderate inhibition”. For the same compound, under “read-out: Glutaminase Activity”, the activity at 3300 µM worked out at 34% and the activity at 9000 µM was 18%.

For the compound `C[C@H](CC(=O)O)[C@H](N)C(=O)O` (relative stereo) [(±)-threo-3-methylglutamate], where the note is “read-out: Glutaminase Activity”, the activity at 3300 µM was 91% and the activity at 9000 µM is 7%.

In the case of `NC(CC(N)C(=O)O)C(=O)O` (stereo not drawn) [2,4-diaminopentanedioic acid], under “read-out: Glutaminase Activity”, the activity at 3300 µM was 82 ± 7% and the activity at 9000 µM worked out at 103 ± 25%.

As to `CCOP(=O)(OCC)c1ccc(P(=O)(OCC)OCC)s1` [2,5-bis(diethoxyphosphoryl) thiophene], under setting [1], the activity at 3000 µM was in the range of 75 to 90% and the activity at 9000 µM lay in the range of 70 to 85%.

For `O=C(O)C(CC=C1c2ccccc2C=Cc2ccccc21)C(=O)O` [2-(2-dibenzo(a,d)cyclohepten-5-ylidene)-ethyl malonic acid], the “dependence of glutaminase inhibition on phosphate level and concentration (in words)” value is listed as “inhibition was reduced in the presence of high phosphate levels; the effect was particularly evident”. The “Glutaminase Activity” value (300 µM) is 83 ± 7. In addition, where the note is “1000 µM”, the “Glutaminase Activity” value amounted to 61 ± 4. Where the note is “read-out: Glutaminase Activity”, the activity at 100 µM stood at 86 ± 10%, the activity at 300 µM came to 75 ± 5% and the activity at 1000 µM is 44 ± 2%.

For `C=CCCCCCCCCCC(C(=O)O)C(=O)O` [2-undec-10-enyl malonate], the “Glutaminase Activity” value (100 µM) came out at 89 ± 6. For the same compound, for the setting “300 µM”, the “Glutaminase Activity” value was found to be 87 ± 2. For the same compound, under “read-out: Glutaminase Activity”, the activity at 100 µM came to 96 ± 7% and the activity at 300 µM is 67 ± 2%.

The compound `N[C@@H](CC(F)C(=O)O)C(=O)O` (stereo partly drawn) [4-fluoroglutamic acid] showed an IC50 of 500 µM. Under “read-out: Glutaminase Activity”, the activity at 330 µM came to 67 ± 7%, the activity at 1000 µM was found to be 30 ± 9% and the activity at 3300 µM amounted to 4.2 ± 1.3%.

On to `CC[C@](N)(CCC(=O)O)C(=O)O` [(2S)-α-ethyl glutamic acid], for which the activity at 3300 µM (read-out: Glutaminase Activity) worked out at 95%.

In the case of `C[C@H](N)C(=O)N[C@@H](CCC(=O)O)C(=O)O` [Ala--Glu] (H-Ala-Glu-OH), for the setting “read-out: Glutaminase Activity”, the activity at 3300 µM was determined as 117% and the activity at 9000 µM stood at 115%.

Take `N=C(N)NCCC[C@H](N)C(=O)N[C@@H](CCC(=O)O)C(=O)O` [Arg--Glu] (H-Arg-Glu-OH): for the setting “read-out: Glutaminase Activity”, the activity at 3300 µM turned out to be 123% and the activity at 9000 µM was 118%.

As for `N[C@@H](CC(=O)O)C(=O)N[C@@H](CCC(=O)O)C(=O)O` [Asp--Glu] (H-Asp-Glu-OH), the “glutaminase inhibition (in words)” value is “moderate inhibition”. In addition, under “read-out: Glutaminase Activity”, the activity at 3300 µM was 77% and the activity at 9000 µM was 32%.

As for `CC(C)(C)OC(=O)N[C@@H](CCC(=O)O)C(=O)O` [BOC--Glu--OH], under “read-out: Glutaminase Activity”, the activity at 3300 µM was determined as 101% and the activity at 9000 µM came to 100%.

`CC(C)(C)OC(=O)NCC(=O)NC(CC(F)C(=O)O)C(=O)O` (stereo not drawn) [BOC-glycyl-4-fluoroglutamate]: under “read-out: Glutaminase Activity”, the activity at 3300 µM turned out to be 52% and the activity at 9000 µM was 15%.

Turning to `N[C@@H](CCC(=O)O)C(=O)N[C@@H](CCC(=O)O)C(=O)O` [Glu--Glu] (H-Glu-Glu-OH), for the setting “read-out: Glutaminase Activity”, the activity at 3300 µM was 130% and the activity at 9000 µM was determined as 141%.

As for `N[C@@H](CCC(=O)O)C(=O)NCC(=O)O` [Glu--Gly] (H-Glu-Gly-OH), under “read-out: Glutaminase Activity”, the activity at 3300 µM worked out at 94% and the activity at 9000 µM was found to be 95%.

With `NCCCC[C@H](NC(=O)[C@@H](N)CCC(=O)O)C(=O)O` [Glu--Lys] (H-Glu-Lys-OH), for the setting “read-out: Glutaminase Activity”, the activity at 3300 µM stood at 96% and the activity at 9000 µM was found to be 93%.

In the case of `C[C@@H](O)[C@H](NC(=O)[C@@H](N)CCC(=O)O)C(=O)O` [Glu--Thr] (H-Glu-Thr-OH), where the note is “read-out: Glutaminase Activity”, the activity at 3300 µM is 124% and the activity at 9000 µM stood at 123%.

Regarding `CC(C)[C@H](NC(=O)[C@@H](N)CCC(=O)O)C(=O)O` [Glu--Val] (H-Glu-Val-OH), for the setting “read-out: Glutaminase Activity”, the activity at 3300 µM stood at 122% and the activity at 9000 µM was 116%.

With `NCC(=O)N[C@@H](CCC(=O)O)C(=O)O` [Gly--Glu] (H-Gly-Glu-OH), for the setting “read-out: Glutaminase Activity”, the activity at 3300 µM was determined as 94% and the activity at 9000 µM amounted to 102%.

Consider `NCC(=O)NCC(=O)N[C@@H](CCC(=O)O)C(=O)O` [Gly--Gly--Glu] (H-Gly-Gly-Glu-OH), for which, where the note is “read-out: Glutaminase Activity”, the activity at 3300 µM was determined as 101% and the activity at 9000 µM was found to be 87%.

As for `NCC(=O)N[C@H](CCC(=O)O)C(=O)O` [Gly-D-Glu] (H-Gly-[dE]-OH), where the note is “read-out: Glutaminase Activity”, the activity at 3300 µM was 109% and the activity at 9000 µM is 90%.

Turning to `CCOC(=O)CC[C@H](N)C(=O)O` [L-glutamate-5-ethyl ester], where the note is “read-out: Glutaminase Activity”, the activity at 3300 µM came out at 98% and the activity at 9000 µM was determined as 92%.

Regarding `COC(=O)CC[C@H](N)C(=O)O` [L-glutamate-5-methyl ester], under “read-out: Glutaminase Activity”, the activity at 3300 µM was found to be 105 ± 7% and the activity at 9000 µM came to 113%.

`NC(=O)[C@@H](N)CCC(=O)O` [L-glutamide]: where the note is “read-out: Glutaminase Activity”, the activity at 3300 µM worked out at 99% and the activity at 9000 µM amounted to 96%.

Take `CSCC[C@H](N)C(=O)N[C@@H](CCC(=O)O)C(=O)O` [Met--Glu] (H-Met-Glu-OH): where the note is “read-out: Glutaminase Activity”, the activity at 3300 µM is 111% and the activity at 9000 µM was determined as 98%.

For the compound `CC(=O)N[C@@H](CC(=O)O)C(=O)N[C@@H](CCC(=O)O)C(=O)O` [N-acetyl Asp--Glu] (Ac-Asp-Glu-OH), the “glutaminase inhibition (in words)” value was “moderate inhibition”. The activity at 3300 µM (read-out: Glutaminase Activity) came to 83%.

For `N=CN[C@@H](CCC(=O)O)C(=O)O` [N-formamino-Glu], under “read-out: Glutaminase Activity”, the activity at 3300 µM is 89% and the activity at 9000 µM is 127%.

On to `N[C@@H](CO)C(=O)N[C@@H](CCC(=O)O)C(=O)O` [Ser--Glu] (H-Ser-Glu-OH), for which, under “read-out: Glutaminase Activity”, the activity at 3300 µM came to 104% and the activity at 9000 µM is 88%.

In the case of `N[C@@H](Cc1c[nH]c2ccccc12)C(=O)N[C@@H](CCC(=O)O)C(=O)O` [Trp--Glu] (H-Trp-Glu-OH), under “read-out: Glutaminase Activity”, the activity at 3300 µM amounted to 99% and the activity at 9000 µM came to 86%.

For `N[C@@H](Cc1ccc(O)cc1)C(=O)N[C@@H](CCC(=O)O)C(=O)O` [Tyr--Glu] (H-Tyr-Glu-OH), under “read-out: Glutaminase Activity”, the activity at 3300 µM stood at 110% and the activity at 9000 µM turned out to be 118%.

For `CC(C)[C@H](N)C(=O)N[C@@H](CCC(=O)O)C(=O)O` [Val--Glu] (H-Val-Glu-OH), under “read-out: Glutaminase Activity”, the activity at 3300 µM stood at 114% and the activity at 9000 µM is 99%.

As to `O=C(O)CC[C@H](NC(=O)OCc1ccccc1)C(=O)O` [carbobenzoxy-Glu--OH], the “glutaminase inhibition (in words)” value was “moderate inhibition”. For the setting “read-out: Glutaminase Activity”, the activity at 3300 µM amounted to 65% and the activity at 9000 µM was 56%.

Consider `O=C(O)CCCC(=O)O` [glutaric acid], for which, under “read-out: Glutaminase Activity”, the activity at 3300 µM is 89% and the activity at 9000 µM amounted to 75%.

In the case of `NCC(=O)NC(CC(F)C(=O)O)C(=O)O` (stereo not drawn) [glycyl-4-fluoroglutamate, Glycyl-4-fluoroglutamate], where the note is “read-out: Glutaminase Activity”, the activity at 330 µM turned out to be 94%, the activity at 900 µM was found to be 80%, the activity at 3300 µM worked out at 55% and the activity at 9000 µM is 30%.

Regarding `Cc1ncc(COP(=O)(O)O)c(C=O)c1O` [pyridoxal 5-phosphate], under setting [1], the activity at 3000 µM is 75 to 90% and the activity at 9000 µM fell in the range of 70 to 85%.

With `C[C@H](NC(=O)[C@@H]1CCC(=O)N1)C(=O)N[C@@H](CCC(=O)O)C(=O)O` [pyro-Glu--Ala--Glu] ([pGlu]-Ala-Glu-OH), under “read-out: Glutaminase Activity”, the activity at 3300 µM was 95% and the activity at 9000 µM worked out at 76%.

In the case of `CC(C)OP(=O)(CCP(=O)(OC(C)C)OC(C)C)OC(C)C` [tetraisopropyl ethylene diphosphonate], under setting [1], the activity at 3000 µM was in the range of 75 to 90% and the activity at 9000 µM fell in the range of 70 to 85%.

For `NC(CC(=O)O)CC(=O)O` [β-glutamic acid], the “Glutaminase Activity” value (9000 µM) is 73 and 83 and 94. The activity at 3300 µM (read-out: Glutaminase Activity) came out at 84%.

Take `N[C@@H](CCC(=O)NCC(=O)O)C(=O)O` [γ-Glu--Gly]: the activity at 3300 µM (read-out: Glutaminase Activity) worked out at 90 ± 13%.

As for `NC(CC(C(=O)O)C(=O)O)C(=O)O` (stereo not drawn) [γ-carboxy glutamate], where the note is “read-out: Glutaminase Activity”, the activity at 3300 µM amounted to 100% and the activity at 9000 µM is 104%.

What is called IC50 is the concentration at which inhibition is half-maximal.
